Data as given in paper PMC10489644, “In Vitro Evaluation of the Potential for Drug Interactions by Salidroside” (Nutrients, 2023).
pIC50: −log10 of the molar value. “And” between values parts separate entries of the source, which are not always exact repeats. Equal values may be shown once. “Also recorded” adds a separate entry of the source.

Experiments:
OATP1B1 = molecular target: T1, OATP1B1 (Homo sapiens, UniProt Q9Y6L6); experiment: Uptake transport inhibition in HEK293-OATP1B1 cells
T1 sequence (Q9Y6L6 1-691): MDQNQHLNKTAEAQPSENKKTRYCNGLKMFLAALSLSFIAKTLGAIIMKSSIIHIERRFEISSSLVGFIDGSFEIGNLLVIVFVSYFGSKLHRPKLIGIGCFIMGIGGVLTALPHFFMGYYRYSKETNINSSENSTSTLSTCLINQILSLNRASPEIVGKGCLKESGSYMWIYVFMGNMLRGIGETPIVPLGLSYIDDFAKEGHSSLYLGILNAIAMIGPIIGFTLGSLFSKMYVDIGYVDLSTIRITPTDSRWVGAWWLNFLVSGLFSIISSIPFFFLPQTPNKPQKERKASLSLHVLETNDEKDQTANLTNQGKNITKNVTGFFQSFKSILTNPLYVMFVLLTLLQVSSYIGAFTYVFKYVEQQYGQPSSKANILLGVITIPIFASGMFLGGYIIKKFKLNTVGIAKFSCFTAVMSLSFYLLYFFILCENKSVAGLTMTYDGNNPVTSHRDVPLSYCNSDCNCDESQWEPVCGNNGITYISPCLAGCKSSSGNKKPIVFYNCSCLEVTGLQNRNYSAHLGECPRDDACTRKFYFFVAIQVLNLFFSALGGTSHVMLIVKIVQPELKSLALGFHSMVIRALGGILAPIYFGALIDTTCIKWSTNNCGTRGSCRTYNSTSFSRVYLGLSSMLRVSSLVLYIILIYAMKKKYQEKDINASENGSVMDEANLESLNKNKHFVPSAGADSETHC
Experimental: (§1) HEK293-OATP1B1 and OATP1B3 cells were diluted to 1 × 10^6 cells/mL with DMEM supplemented with 1% non-essential amino acid (NEAA), 10% fetal bovine serum (FBS), 1% PS solution (100 U/mL penicillin-G and 100 μg/mL streptomycin), and seeded on a 96-well BioCoat™ poly-d-lysine plate at a density of 1 × 10^6 cells/mL. […] Once the cells were anchored on the plate, the cell culture was replaced with DMEM containing 10% FBS and 1% PS solution (100 U/mL penicillin-G and 100 μg/mL streptomycin solution) and cultured one day for the uptake and inhibition studies. The cell culture medium was removed from the 96-well plate, then rinsed twice with 0.1 mL/well of pre-warmed transport buffer. The transporter cells containing pre-incubation solution were pre-incubated at 37 °C for 30 min. Then the pre-incubation solution was removed and replaced with 0.1 mL/well of dosing solution containing a substrate, respectively (blank transporter buffer containing a substrate, transport buffer containing a substrate and PC, and transport buffer containing a substrate and salidroside). Then, the transporter cells were incubated at 37 °C for 2 min. After incubation, all solutions in the cells were discarded and rinsed with 0.10 mL/well of ice-cold transport buffer (4 °C) three times. […] All samples were shaken and centrifuged at 4000 rpm at 4 °C for 15 min and the supernatant was removed for future analysis by LC-MS/MS.
(§2) Enzyme activity (%) = PAR with compound/PAR vehicle × 100.
Estradiol-17β-glucuronide (substrate) was incubated with an OATP1B1-transfected HEK293 cell monolayer in the presence or absence of salidroside at concentrations up to 100 µM.

OATP1B3 = molecular target: T2, OATP1B3 (Homo sapiens, UniProt Q9NPD5); experiment: Uptake transport inhibition in HEK293-OATP1B3 cells
T2 sequence (Q9NPD5 1-702): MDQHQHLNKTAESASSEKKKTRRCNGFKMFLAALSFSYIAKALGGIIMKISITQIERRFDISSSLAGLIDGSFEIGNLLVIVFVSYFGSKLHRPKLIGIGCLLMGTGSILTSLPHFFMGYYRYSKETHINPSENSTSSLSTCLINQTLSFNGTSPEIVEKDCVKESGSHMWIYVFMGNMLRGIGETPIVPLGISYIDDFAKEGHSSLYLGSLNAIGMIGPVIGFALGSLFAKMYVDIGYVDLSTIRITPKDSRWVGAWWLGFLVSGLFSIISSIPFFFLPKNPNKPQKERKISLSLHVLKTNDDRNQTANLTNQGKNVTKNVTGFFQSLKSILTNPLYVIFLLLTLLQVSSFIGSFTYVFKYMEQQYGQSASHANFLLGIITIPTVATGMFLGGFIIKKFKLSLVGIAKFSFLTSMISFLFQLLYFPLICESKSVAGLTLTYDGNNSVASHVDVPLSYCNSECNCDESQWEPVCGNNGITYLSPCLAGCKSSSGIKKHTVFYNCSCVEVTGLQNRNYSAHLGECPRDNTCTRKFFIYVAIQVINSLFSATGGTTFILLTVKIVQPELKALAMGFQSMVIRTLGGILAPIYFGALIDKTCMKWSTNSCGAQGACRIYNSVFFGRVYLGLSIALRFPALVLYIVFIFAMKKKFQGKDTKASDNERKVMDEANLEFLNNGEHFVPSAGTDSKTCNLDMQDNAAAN
Experimental: as §1, §2

[1] = Estimation of maximum human plasma concentration
Experimental: An estimation of the maximum plasma concentration of salidroside in humans was made from the pharmacokinetics in rats after oral dosing and the recommended human daily dose of salidroside of 60 mg (two 30 mg capsules). Male Sprague–Dawley rats were dosed either with IV or orally at 12 mg/kg (N = 6/group). Salidroside was moderately cleared (21 mL/min/kg) and well absorbed orally.

CYP2C9 = CYP2C9 (Homo sapiens, UniProt P11712); settings: microsomes
Sequence of CYP2C9 (P11712 whole entry): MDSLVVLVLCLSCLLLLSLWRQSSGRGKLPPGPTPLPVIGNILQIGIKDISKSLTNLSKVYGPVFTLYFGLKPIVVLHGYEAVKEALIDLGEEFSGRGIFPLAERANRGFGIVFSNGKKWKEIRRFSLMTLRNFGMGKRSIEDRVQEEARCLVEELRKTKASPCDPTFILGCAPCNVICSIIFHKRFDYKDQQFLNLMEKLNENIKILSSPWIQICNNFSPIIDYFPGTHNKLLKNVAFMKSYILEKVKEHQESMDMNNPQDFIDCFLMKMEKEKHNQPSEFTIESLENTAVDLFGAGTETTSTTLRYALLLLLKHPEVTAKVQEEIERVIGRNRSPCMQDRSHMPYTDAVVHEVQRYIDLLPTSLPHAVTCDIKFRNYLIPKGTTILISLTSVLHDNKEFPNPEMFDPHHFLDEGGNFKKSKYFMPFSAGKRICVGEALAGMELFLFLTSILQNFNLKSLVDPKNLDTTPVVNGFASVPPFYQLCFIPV

CYP2D6 = CYP2D6 (Homo sapiens, UniProt P10635); settings: microsomes
Sequence of CYP2D6 (P10635 whole entry): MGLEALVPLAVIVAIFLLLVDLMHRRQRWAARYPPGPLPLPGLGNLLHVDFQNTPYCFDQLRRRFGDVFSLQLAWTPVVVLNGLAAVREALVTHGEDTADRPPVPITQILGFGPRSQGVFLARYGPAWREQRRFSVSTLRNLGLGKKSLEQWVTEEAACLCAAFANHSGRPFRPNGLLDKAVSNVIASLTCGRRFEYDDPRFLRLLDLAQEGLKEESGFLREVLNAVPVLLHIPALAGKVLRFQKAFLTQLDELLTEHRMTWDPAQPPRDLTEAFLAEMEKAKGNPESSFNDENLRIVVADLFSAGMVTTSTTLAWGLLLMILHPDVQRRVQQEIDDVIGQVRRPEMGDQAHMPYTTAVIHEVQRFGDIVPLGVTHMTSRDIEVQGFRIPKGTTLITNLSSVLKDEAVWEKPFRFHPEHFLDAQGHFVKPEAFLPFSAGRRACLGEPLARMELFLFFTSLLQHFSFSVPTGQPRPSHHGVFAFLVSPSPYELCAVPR

CYP3A4/5 = settings: microsomes
[2] = set-up: method as in PMID 22139684, PMID 22525439; settings: rats, two studies; cited from earlier work
CYP3A4 = experiment: in vitro; settings: human, Mean Fold Induction
in vitro = settings: human, plasma, pH 7.4

Q: With `OC[C@H]1O[C@@H](OCCc2ccc(O)cc2)[C@H](O)[C@@H](O)[C@@H]1O` [Salidroside] as the molecule, how does the pIC50 (OATP1B1) read?
A: < 4.00

Q: And the activity at 2 min, 100 µM (OATP1B1; human)?
A: 84.4%

Q: What about the inhibition at 2 min, 100 µM (OATP1B1; human) of the same molecule?
A: 15.5%

Q: What about the “mean % of control activity / inhibition of OATP1B1” value (OATP1B1; up to concentrations of 33.3 mM, 33.3 µM) of the same molecule?
A: unchanged; also recorded: no inhibition

Q: And the pIC50 (OATP1B3)?
A: < 4.00

Q: What about the “mean control activities (% of control activity) / inhibition of OATP1B3” value (OATP1B3; 100 µM) of the same molecule?
A: unchanged; also recorded: no inhibition

Q: And the Cmax ([1]; 60 mg PO daily (~1 mg/kg), scaled from rat, read-out: predicted human total Cmax (predicted plasma concentration))?
A: < 2000 nM

Q: And the “predicted human unbound Cmax” value ([1]; 60 mg daily, Cmax x fu,plasma)?
A: ~ 1.18 μM

Q: And the “IC50 Shift” value (CYP2C9)?
A: no shift

Q: And the “IC50 Shift” value (CYP2D6)?
A: no shift

Q: What about the “IC50 Shift” value (CYP3A4/5) of the same molecule?
A: no shift

Q: What about the “percentage recovery of an IV dose as unchanged in the urine” value [2] of the same molecule?
A: 53.7% and 64%

Q: And the fold induction at 48 h, 1 µM (CYP3A4)?
A: 0.7

Q: And the fraction unbound at 5 h, 5 µM (in vitro)?
A: 0.985
